{"source": "paper PMC5218480", "about": "(PLoS ONE, 2017)", "tested_on": "MV-4-11 cells", "assay": "Gene expression microarray analysis (Affymetrix PrimeView) and GSEA", "format": "cell-based, human", "design": "RFU PODN (11730768_x_at) / Fold change /veh PODN (11730768_x_at) / RFU LINC00158 (11744669_a_at) / Fold change /veh LINC00158 (11744669_a_at) / RFU DUSP10 (11751237_a_at) / Fold change /veh DUSP10 (11751237_a_at) / RFU ID3 (11757404_x_at) / Fold change /veh ID3 (11757404_x_at) / RFU PLEKHG5 (11737974_s_at) / Fold change /veh PLEKHG5 (11737974_s_at) / RFU LRRC4B (11730491_at) / Fold change /veh LRRC4B (11730491_at) / RFU GIMAP4 (11747438_a_at) / Fold change /veh GIMAP4 (11747438_a_at) / RFU KRT8 (11758183_x_at) / Fold change /veh KRT8 (11758183_x_at) / RFU CNN1 (11734310_a_at) / Fold change /veh CNN1 (11734310_a_at) / RFU VPS37D (11726825_at) / Fold change /veh VPS37D (11726825_at) / RFU C10orf10 (11716522_x_at) / Fold change /veh C10orf10 (11716522_x_at) / RFU KIR2DL2 /// KIR2DL4 /// KIR2DL5A /// KIR2DL5B /// KIR2DS1 /// KIR2DS2 /// KIR2DS3 /// KIR2DS4 /// KIR3DL3 /// KIR3DL3 /// KIR3DS1 (11738374_at) / Fold change /veh KIR2DL2 /// KIR2DL4 /// KIR2DL5A /// KIR2DL5B /// KIR2DS1 /// KIR2DS2 /// KIR2DS3 /// KIR2DS4 /// KIR3DL3 /// KIR3DL3 /// KIR3DS1 (11738374_at) / RFU C1QL1 (11718748_at) / Fold change /veh C1QL1 (11718748_at) / RFU TMPRSS4 (11747572_a_at) / Fold change /veh TMPRSS4 (11747572_a_at) / RFU HAMP (11756126_x_at) / Fold change /veh HAMP (11756126_x_at) / RFU RNFT2 (11725882_a_at) / Fold change /veh RNFT2 (11725882_a_at) / RFU NR4A2 (11747474_a_at) / Fold change /veh NR4A2 (11747474_a_at) / RFU ABCC12 (11746883_a_at) / Fold change /veh ABCC12 (11746883_a_at) / RFU TMEM136 (11760407_x_at) / Fold change /veh TMEM136 (11760407_x_at) / RFU CLDN22 /// WWC2 (11732394_at) / Fold change /veh CLDN22 /// WWC2 (11732394_at) / RFU HLA-DPB1 (11760878_x_at) / Fold change /veh HLA-DPB1 (11760878_x_at) / RFU SPINT1 (11716480_a_at) / Fold change /veh SPINT1 (11716480_a_at) / RFU GAP43 (11754022_s_at) / Fold change /veh GAP43 (11754022_s_at) / RFU A4GNT (11735810_at) / Fold change /veh A4GNT (11735810_at) / RFU PRB3 (11715151_x_at) / Fold change /veh PRB3 (11715151_x_at) / RFU TUBB4B (11761932_at) / Fold change /veh TUBB4B (11761932_at) / RFU CAPN14 (11732068_a_at) / Fold change /veh CAPN14 (11732068_a_at) / RFU TMCC2 (11721928_a_at) / Fold change /veh TMCC2 (11721928_a_at) / RFU IRGQ (11745062_a_at) / Fold change /veh IRGQ (11745062_a_at) / RFU FAM174B (11720279_a_at) / Fold change /veh FAM174B (11720279_a_at) / RFU TMPRSS4 (11748680_a_at) / Fold change /veh TMPRSS4 (11748680_a_at) / RFU FAM212B (11763350_a_at) / Fold change /veh FAM212B (11763350_a_at) / RFU PLEKHG5 (11743358_a_at) / Fold change /veh PLEKHG5 (11743358_a_at) / RFU ZSCAN30 (11745921_a_at) / Fold change /veh ZSCAN30 (11745921_a_at) / RFU CMKLR1 (11741424_a_at) / Fold change /veh CMKLR1 (11741424_a_at) / RFU LOC101060620 /// MAPK8IP1 (11723275_at) / Fold change /veh LOC101060620 /// MAPK8IP1 (11723275_at) / RFU SPTSSB (11747773_x_at) / Fold change /veh SPTSSB (11747773_x_at) / RFU PRSS12 (11739890_at) / Fold change /veh PRSS12 (11739890_at) / RFU BIN1 (11741810_x_at) / Fold change /veh BIN1 (11741810_x_at) / RFU WNT11 (11732464_a_at) / Fold change /veh WNT11 (11732464_a_at) / RFU C10orf10 (11716521_a_at) / Fold change /veh C10orf10 (11716521_a_at) / RFU C5orf56 (11738089_at) / Fold change /veh C5orf56 (11738089_at) / RFU CYB561 (11721691_x_at) / Fold change /veh CYB561 (11721691_x_at) / RFU ANKRD19P (11752326_a_at) / Fold change /veh ANKRD19P (11752326_a_at) / RFU OR2T12 /// OR2T33 /// OR2T8 (11738714_s_at) / Fold change /veh OR2T12 /// OR2T33 /// OR2T8 (11738714_s_at) / RFU VCAN (11748164_a_at) / Fold change /veh VCAN (11748164_a_at) / RFU JSRP1 (11732532_at) / Fold change /veh JSRP1 (11732532_at) / RFU KRTAP10-11 (11738290_x_at) / Fold change /veh KRTAP10-11 (11738290_x_at) / RFU MYO3A (11730013_a_at) / Fold change /veh MYO3A (11730013_a_at) / RFU EBF3 (11725865_a_at) / Fold change /veh EBF3 (11725865_a_at) / RFU CAMK2N1 (11719241_x_at) / Fold change /veh CAMK2N1 (11719241_x_at) / RFU C5orf56 (11738088_a_at) / Fold change /veh C5orf56 (11738088_a_at) / RFU OLFML3 (11715873_a_at) / Fold change /veh OLFML3 (11715873_a_at) / RFU LOC100653217 /// NTM (11731650_a_at) / Fold change /veh LOC100653217 /// NTM (11731650_a_at) / RFU MAPK11 (11762145_a_at) / Fold change /veh MAPK11 (11762145_a_at) / RFU FIZ1 (11724087_x_at) / Fold change /veh FIZ1 (11724087_x_at) / RFU OASL (11726364_x_at) / Fold change /veh OASL (11726364_x_at) / RFU SOX15 (11748057_x_at) / Fold change /veh SOX15 (11748057_x_at) / RFU CD79A (11719716_a_at) / Fold change /veh CD79A (11719716_a_at) / RFU HIST1H1D (11736915_at) / Fold change /veh HIST1H1D (11736915_at) / RFU CASKIN2 (11723855_a_at) / Fold change /veh CASKIN2 (11723855_a_at) / RFU LOC730098 (11760151_x_at) / Fold change /veh LOC730098 (11760151_x_at) / RFU OR4N2 (11742367_at) / Fold change /veh OR4N2 (11742367_at) / RFU PRRT2 (11749266_a_at) / Fold change /veh PRRT2 (11749266_a_at) / RFU SNX32 (11753110_a_at) / Fold change /veh SNX32 (11753110_a_at) / RFU CDHR5 (11726645_a_at) / Fold change /veh CDHR5 (11726645_a_at) / RFU RCAN1 (11760418_a_at) / Fold change /veh RCAN1 (11760418_a_at) / RFU FAM167A (11723789_a_at) / Fold change /veh FAM167A (11723789_a_at) / RFU FAM26E (11764081_at) / Fold change /veh FAM26E (11764081_at) / RFU ISYNA1 (11749810_s_at) / Fold change /veh ISYNA1 (11749810_s_at) / RFU ACY1 (11761880_at) / Fold change /veh ACY1 (11761880_at) / RFU 11764098_at / Fold change /veh 11764098_at / RFU SAMD14 (11745864_x_at) / Fold change /veh SAMD14 (11745864_x_at) / RFU NPB (11741838_a_at) / Fold change /veh NPB (11741838_a_at) / RFU TMPRSS6 (11731388_a_at) / Fold change /veh TMPRSS6 (11731388_a_at) / RFU KRTAP10-2 (11738614_at) / Fold change /veh KRTAP10-2 (11738614_at) / RFU ARHGAP8 /// PRR5-ARHGAP8 (11727945_x_at) / Fold change /veh ARHGAP8 /// PRR5-ARHGAP8 (11727945_x_at) / RFU KRTAP5-7 /// NADSYN1 (11734609_at) / Fold change /veh KRTAP5-7 /// NADSYN1 (11734609_at) / RFU RASL12 (11751679_a_at) / Fold change /veh RASL12 (11751679_a_at) / RFU CDKN2B (11736163_a_at) / Fold change /veh CDKN2B (11736163_a_at) / RFU PRF1 (11729649_at) / Fold change /veh PRF1 (11729649_at) / RFU, ZNF638 /// ZNF638-IT1 / Fold change vs veh, ZNF638 /// ZNF638-IT1 / RFU, PANK3 / Fold change vs veh, PANK3 / RFU, SH3YL1 / Fold change vs veh, SH3YL1 / RFU, ZEB2 / Fold change vs veh, ZEB2 / RFU, NRIP1 / Fold change vs veh, NRIP1 / RFU, PTTG1IP / Fold change vs veh, PTTG1IP / RFU, CAPN2 / Fold change vs veh, CAPN2 / RFU, MED14 / Fold change vs veh, MED14 / RFU, SNORA58 / Fold change vs veh, SNORA58 / RFU, C1orf63 / Fold change vs veh, C1orf63 / RFU, LRRFIP1 / Fold change vs veh, LRRFIP1 / RFU, NDUFAF7 / Fold change vs veh, NDUFAF7 / RFU, SLC12A2 / Fold change vs veh, SLC12A2 / RFU, IBTK / Fold change vs veh, IBTK / RFU, ESF1 / Fold change vs veh, ESF1 / Fold change vs veh, TMEM50B / RFU, TAOK1 / Fold change vs veh, TAOK1 / RFU, ACBD3 / Fold change vs veh, ACBD3 / RFU, TMA16 / Fold change vs veh, TMA16 / RFU, RWDD3 / Fold change vs veh, RWDD3 / RFU, BCAT1 / Fold change vs veh, BCAT1 / RFU, EDEM3 / Fold change vs veh, EDEM3 / RFU, TMEM33 / Fold change vs veh, TMEM33 / RFU, WDR75 / Fold change vs veh, WDR75 / RFU, AHCTF1 / Fold change vs veh, AHCTF1 / RFU, TFRC / Fold change vs veh, TFRC / RFU, ZDHHC17 / Fold change vs veh, ZDHHC17 / RFU, NOM1 / Fold change vs veh, NOM1 / RFU, ARL8B / Fold change vs veh, ARL8B / RFU, ZBTB11 / Fold change vs veh, ZBTB11 / RFU, TAMM41 / Fold change vs veh, TAMM41 / RFU, KIAA1704 /// LOC100996395 / Fold change vs veh, KIAA1704 /// LOC100996395 / RFU, ING1 / Fold change vs veh, ING1 / RFU, TRMT61B / Fold change vs veh, TRMT61B / RFU, FUBP3 / Fold change vs veh, FUBP3 / RFU, TP53 / Fold change vs veh, TP53 / RFU, TNKS2 / Fold change vs veh, TNKS2 / RFU, ZFP14 / Fold change vs veh, ZFP14 / RFU, ACTR2 / Fold change vs veh, ACTR2 / RFU, PPP3R1 / Fold change vs veh, PPP3R1 / RFU, PIK3R1 / Fold change vs veh, PIK3R1 / RFU, HNRNPA1 / Fold change vs veh, HNRNPA1 / RFU, RNF170 / Fold change vs veh, RNF170 / RFU, ZNF28 / Fold change vs veh, ZNF28 / RFU, RNGTT / Fold change vs veh, RNGTT / RFU, OGT / Fold change vs veh, OGT / RFU, BRD1 / Fold change vs veh, BRD1 / RFU, MARS / Fold change vs veh, MARS / RFU, ZNF655 / Fold change vs veh, ZNF655 / RFU, FAHD1 / Fold change vs veh, FAHD1 / RFU, BDP1 / Fold change vs veh, BDP1 / RFU, LRRCC1 / Fold change vs veh, LRRCC1 / RFU, ARID1A / Fold change vs veh, ARID1A / RFU, ZNF146 / Fold change vs veh, ZNF146 / RFU, ZNF330 / Fold change vs veh, ZNF330 / RFU, GPN3 / Fold change vs veh, GPN3 / RFU, C9orf123 / Fold change vs veh, C9orf123 / RFU, N4BP2L2 / Fold change vs veh, N4BP2L2 / RFU, ARFIP1 / Fold change vs veh, ARFIP1 / RFU, FAM179B / Fold change vs veh, FAM179B / RFU, BCL10 / Fold change vs veh, BCL10 / RFU, UHRF1BP1L / Fold change vs veh, UHRF1BP1L / RFU, BET1 / Fold change vs veh, BET1 / RFU, CNOT2 / Fold change vs veh, CNOT2 / RFU, ZNF268 / Fold change vs veh, ZNF268 / Fold change vs veh, ZNF507 / RFU, DGCR2 / Fold change vs veh, DGCR2 / RFU, WDSUB1 / Fold change vs veh, WDSUB1 / Fold change vs veh, HSP90B1 /// MIR3652 / RFU, ADSS / Fold change vs veh, ADSS / RFU, GK / Fold change vs veh, GK / RFU, ZNF148 / Fold change vs veh, ZNF148 / RFU, TAF9 / Fold change vs veh, TAF9 / RFU, SLC1A5 / Fold change vs veh, SLC1A5 / RFU, SLMO2 / Fold change vs veh, SLMO2 / RFU, ABCC4 / Fold change vs veh, ABCC4 / RFU, LOC101060439 /// RAP1B / Fold change vs veh, LOC101060439 /// RAP1B / RFU, RFX7 / Fold change vs veh, RFX7 / RFU, GTPBP10 / Fold change vs veh, GTPBP10 / RFU, CNEP1R1 / Fold change vs veh, CNEP1R1 / RFU, BIVM-ERCC5 /// ERCC5 / Fold change vs veh, BIVM-ERCC5 /// ERCC5 / RFU, ILF3 / Fold change vs veh, ILF3 / RFU 11762660_at / Fold change /veh 11762660_at / RFU VCAN (11757783_s_at) / Fold change /veh VCAN (11757783_s_at) / RFU DDX43 (11728927_at) / Fold change /veh DDX43 (11728927_at) / RFU KRT8 (11758188_x_at) / Fold change /veh KRT8 (11758188_x_at) / RFU NKD1 (11759106_at) / Fold change /veh NKD1 (11759106_at) / RFU SRD5A1 (11742802_a_at) / Fold change /veh SRD5A1 (11742802_a_at) / RFU TPSAB1 /// TPSB2 (11721975_s_at) / Fold change /veh TPSAB1 /// TPSB2 (11721975_s_at) / RFU GSTM3 (11746129_a_at) / Fold change /veh GSTM3 (11746129_a_at) / RFU IL23R (11737362_x_at) / Fold change /veh IL23R (11737362_x_at) / RFU TMEM51 (11727254_a_at) / Fold change /veh TMEM51 (11727254_a_at) / RFU PIWIL2 (11732686_x_at) / Fold change /veh PIWIL2 (11732686_x_at) / RFU ORM1 (11744905_x_at) / Fold change /veh ORM1 (11744905_x_at) / RFU CCDC152 (11743942_at) / Fold change /veh CCDC152 (11743942_at) / RFU ECM1 (11717891_a_at) / Fold change /veh ECM1 (11717891_a_at) / RFU IL23R (11748794_a_at) / Fold change /veh IL23R (11748794_a_at) / RFU TNFAIP8L3 (11732012_x_at) / Fold change /veh TNFAIP8L3 (11732012_x_at) / RFU MBOAT4 (11741988_at) / Fold change /veh MBOAT4 (11741988_at) / RFU 11764193_at / Fold change /veh 11764193_at / RFU TMEM53 (11763286_at) / Fold change /veh TMEM53 (11763286_at) / RFU MAGEB2 (11727129_at) / Fold change /veh MAGEB2 (11727129_at) / RFU TMEM200A (11744735_a_at) / Fold change /veh TMEM200A (11744735_a_at) / RFU CCDC152 (11751479_a_at) / Fold change /veh CCDC152 (11751479_a_at) / RFU FAM211A (11726209_a_at) / Fold change /veh FAM211A (11726209_a_at) / RFU RGS16 (11746705_a_at) / Fold change /veh RGS16 (11746705_a_at) / RFU VCAN (11755009_s_at) / Fold change /veh VCAN (11755009_s_at) / RFU RHOB (11743442_s_at) / Fold change /veh RHOB (11743442_s_at) / RFU RGS16 (11720943_a_at) / Fold change /veh RGS16 (11720943_a_at) / RFU RGS16 (11720944_at) / Fold change /veh RGS16 (11720944_at) / RFU, VPS4B / Fold change vs veh, VPS4B / RFU, CREB1 / Fold change vs veh, CREB1 / RFU, DNAJC13 / Fold change vs veh, DNAJC13 / RFU, GNAQ / Fold change vs veh, GNAQ / RFU, CDK5R1 / Fold change vs veh, CDK5R1 / RFU, ZRANB3 / Fold change vs veh, ZRANB3 / RFU, CUL4A / Fold change vs veh, CUL4A / RFU, CCNY / Fold change vs veh, CCNY / RFU, UFL1 / Fold change vs veh, UFL1 / RFU, COG3 / Fold change vs veh, COG3 / RFU, DIAPH2 / Fold change vs veh, DIAPH2 / RFU, SKA2 / Fold change vs veh, SKA2 / RFU, AFF3 / Fold change vs veh, AFF3 / RFU, LMF1 / Fold change vs veh, LMF1 / RFU, IPO11 / Fold change vs veh, IPO11 / RFU, DFFB / Fold change vs veh, DFFB / RFU, FOXP1 / Fold change vs veh, FOXP1 / RFU, CARD8 / Fold change vs veh, CARD8 / RFU, STRN3 / Fold change vs veh, STRN3 / RFU, ADK / Fold change vs veh, ADK / RFU, RASSF2 / Fold change vs veh, RASSF2 / RFU, WIPF1 / Fold change vs veh, WIPF1 / RFU, LARP1B / Fold change vs veh, LARP1B / RFU, RASA1 / Fold change vs veh, RASA1 / RFU, RB1 / Fold change vs veh, RB1 / RFU, PPFIA1 / Fold change vs veh, PPFIA1 / RFU, MAT2A / Fold change vs veh, MAT2A / RFU, CCT5 / Fold change vs veh, CCT5 / RFU, WDR92 / Fold change vs veh, WDR92 / RFU, CUX1 / Fold change vs veh, CUX1 / RFU, TTC7A / Fold change vs veh, TTC7A / RFU, TMEM135 / Fold change vs veh, TMEM135 / RFU, DEPTOR / Fold change vs veh, DEPTOR / RFU, CPM / Fold change vs veh, CPM / RFU, DNAJB6 / Fold change vs veh, DNAJB6 / RFU, CACNA2D3 / Fold change vs veh, CACNA2D3 / RFU, DTX4 / Fold change vs veh, DTX4 / RFU, TFCP2 / Fold change vs veh, TFCP2 / RFU, GMCL1 /// GMCL1P1 / Fold change vs veh, GMCL1 /// GMCL1P1 / RFU, AEBP2 / Fold change vs veh, AEBP2 / RFU, SNHG1 /// SNORD22 /// SNORD25 /// SNORD26 /// SNORD27 /// SNORD28 /// SNORD29 /// SNORD31 / Fold change vs veh, SNHG1 /// SNORD22 /// SNORD25 /// SNORD26 /// SNORD27 /// SNORD28 /// SNORD29 /// SNORD31 / Fold change (Aza/veh), C12orf56 (ProbeSet 11735607_a_at) / Fold change (ACY-1035/veh), C12orf56 (ProbeSet 11735607_a_at) / Fold change (Aza/veh), FGFR1OP (ProbeSet 11751329_s_at) / Fold change (ACY-1035/veh), FGFR1OP (ProbeSet 11751329_s_at) / Fold change (Aza/veh), VPS36 (ProbeSet 11739960_a_at) / Fold change (ACY-1035/veh), VPS36 (ProbeSet 11739960_a_at) / RFU SYPL1 (11715823_x_at) / Fold change /veh SYPL1 (11715823_x_at) / RFU IGFBP7 (11715501_s_at) / Fold change /veh IGFBP7 (11715501_s_at) / RFU REEP3 (11722064_at) / Fold change /veh REEP3 (11722064_at) / RFU IGLL1 (11728026_x_at) / Fold change /veh IGLL1 (11728026_x_at): dose or concentration left out as unconfirmed", "conditions": "ProbeSet 11759094_a_at; LIST D"}
{"smiles": "Nc1ccc(-c2cccs2)cc1NC(=O)c1ccc2c(c1)cc(C1CC1)n2CCN1CCOCC1", "note": "[ACY-1035]", "values": [{"measurement": "Fold change vs veh, GNAQ", "value": 0.89}]}
